Experimental data: patent US11420936B2, “Hypoxia inducible factor-2(alpha) inhibitors and their use in the treatment of diseases” (priority 2020, dated 2022)

target: HIF-2α/ARNT dimerization (Homo sapiens (Human), UniProt Q99814); assay: Co-immunoprecipitation assay for inhibition of HIF-2α and ARNT dimerization in PASMC and HPAEC; type: cell-based; conditions: 0.01 μM, PASMC/HPAEC under hypoxia condition (1% O2)
Procedure: FIG. 1 provides results of a co-immunoprecipitation assay for measuring inhibition of HIF-2α and ARNT dimerization in Primary Pulmonary Artery Smooth Muscle Cells (PASMC) and Human Pulmonary Artery Endothelial Cells (HPAEC).
Primary Pulmonary Artery Smooth Muscle Cells (PASMC, ATCC #PCS-100-023) were cultured in Vascular Cell Basal Medium (ATCC #PCS-100-030) supplemented with Vascular Smooth Muscle Cell Growth Kit (ATCC #PCS-100-042). Primary Pulmonary Artery Endothelial Cells (HPAEC, ATCC #PCS-100-022) were cultured in Vascular Cell Basal Medium (ATCC #PCS-100-030) supplemented with Endothelial Cell Growth Kit-BBE (ATCC #PCS-100-040). 0.5×10^6 cells were seeded into 6-well cell culture plates (Corning #3736) in 2 mL of media and cultured in a 37° C. cell culture incubator with atmospheric levels of oxygen and 5% CO2 overnight. The following day, cells were cultured in normoxia condition (atmospheric levels of oxygen and 5% CO2) or in hypoxia condition (1% O2 and 5% CO2) and treated with dimethyl sulfoxide (DMSO) or Compound 24a at 0.001, 0.01, 0.1, and 1 μM for 24 h.
After treatment, cells were washed with ice-cold PBS (containing compounds as in treatment step). […] Supernatant (cell lysate) was transferred to a new tube and protein concentration was measured by BCA protein assay. […]
Cell lysates were also analyzed by immunoblot (Western analysis). […]

Sequence of HIF-2α/ARNT dimerization (Q99814 whole entry): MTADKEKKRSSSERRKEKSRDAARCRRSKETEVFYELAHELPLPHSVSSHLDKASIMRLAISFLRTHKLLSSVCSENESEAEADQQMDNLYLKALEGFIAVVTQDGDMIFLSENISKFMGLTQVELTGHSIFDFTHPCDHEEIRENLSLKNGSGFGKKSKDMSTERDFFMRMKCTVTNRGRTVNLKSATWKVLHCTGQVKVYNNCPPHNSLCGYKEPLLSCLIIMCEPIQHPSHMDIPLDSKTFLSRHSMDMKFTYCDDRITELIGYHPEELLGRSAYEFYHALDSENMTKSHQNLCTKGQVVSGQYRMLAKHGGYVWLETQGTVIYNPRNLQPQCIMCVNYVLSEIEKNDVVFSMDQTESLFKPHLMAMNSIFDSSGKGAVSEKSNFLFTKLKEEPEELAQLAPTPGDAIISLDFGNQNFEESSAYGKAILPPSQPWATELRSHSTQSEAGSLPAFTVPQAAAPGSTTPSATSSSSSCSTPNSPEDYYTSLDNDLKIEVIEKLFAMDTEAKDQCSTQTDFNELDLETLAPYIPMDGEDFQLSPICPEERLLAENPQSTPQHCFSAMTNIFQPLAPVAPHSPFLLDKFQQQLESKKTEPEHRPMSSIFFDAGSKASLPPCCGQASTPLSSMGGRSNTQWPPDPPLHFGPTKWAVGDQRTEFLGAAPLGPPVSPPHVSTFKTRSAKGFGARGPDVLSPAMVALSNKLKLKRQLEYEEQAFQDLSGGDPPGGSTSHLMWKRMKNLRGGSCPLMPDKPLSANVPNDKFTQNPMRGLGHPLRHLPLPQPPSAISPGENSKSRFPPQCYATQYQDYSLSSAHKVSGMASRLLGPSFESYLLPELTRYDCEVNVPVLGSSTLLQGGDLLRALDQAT

SMILES | Disruption of HIF-2α/ARNT dimerization at 0.01 μM
N#Cc1cc(F)cc(Oc2ccc3c4c2[C@@H](F)[C@@H](F)[C@]4(O)C(F)(F)C3(F)F)c1 [Compound 24a, 3-fluoro-5-(((1R,2S,2aS)-1,2,3,3,4,4-hexafluoro-2a-hydroxy-2,2a,3,4-tetrahydro-1H-cyclopenta[cd]inden-7-yl)oxy)benzonitrile] | efficiently disrupt the HIF-2α/ARNT dimerization

same assay, conditions: PASMC and HPAEC, 0.001, 0.01, 0.1 and 1 μM for 24 h, FIG. 1

SMILES | Disruption of HIF-2α/ARNT dimerization (HIF-2α protein co-precipitated with ARNT)
N#Cc1cc(F)cc(Oc2ccc3c4c2[C@@H](F)[C@@H](F)[C@]4(O)C(F)(F)C3(F)F)c1 [Compound 24a, 3-fluoro-5-(((1R,2S,2aS)-1,2,3,3,4,4-hexafluoro-2a-hydroxy-2,2a,3,4-tetrahydro-1H-cyclopenta[cd]inden-7-yl)oxy)benzonitrile] | reduced in the lysate of cells treated with Compound 24a in a dose-dependent manner

target: HIF-2α (Homo sapiens (Human), UniProt Q99814); assay: cell-based; type: cell-based; conditions: not given
Sequence (Q99814 whole entry): as above
Procedure: The ability of the disclosed compounds to inhibit HIF-2α was measured by determining VEGF expression in 786-O cells. About 7500 786-O cells were seeded into each well of a 96-well, white, clear bottom plate (07-200-566, Fisher Scientific) with 200 ul growth medium. Four hours later, compounds were dispensed into wells by Tecan D300e digital dispenser with starting concentration of 10 uM and ½ log of dilution down to 1 nM as final concentration. Each concentration of treatment was performed in duplicate. About 20 hours later, medium was removed and fresh medium was added, followed by compounds treatment as described above. 24 hours later, cell culture medium was collected to determine VEGF concentration using an ELISA kit (R&D systems, cat #DVE00) following the manufacturer's instruction.
The EC50 is calculated by GraphPad Prism using the dose-response-inhibition (four parameter) equation. The plate with cells was then subjected to CellTiter-Glo luminescence cell viability assay (Promega) to determine the effect of these compounds on cell numbers after the above treatment.

SMILES | EC50 [µM]
[2H]C1([2H])[C@@]2(O)c3c(ccc(Oc4cc(F)cc(C#N)c4)c3[C@@]1([2H])F)C(F)(F)C2(F)F [Compound 21, 3-fluoro-5-(((1S,2aR)-1,3,3,4,4-pentafluoro-2a-hydroxy-2,2a,3,4-tetrahydro-1H-cyclopenta[cd]inden-7-yl-1,2,2-d3)oxy)benzonitrile] | 0.006

same assay, conditions: inhibition of VEGF expression in 786-O cells, ELISA of culture medium; read-out: EC50

SMILES | EC50 [µM]
C=C1CC2(O)c3c(ccc(Oc4cc(F)cc(C#N)c4)c31)C(F)(F)C2(F)F (stereo not shown) [Compound 1, 3-fluoro-5-((3,3,4,4-tetrafluoro-2a-hydroxy-1-methylene-2,2a,3,4-tetrahydro-1H-cyclopenta[cd]inden-7-yl)oxy)benzonitrile] | 0.013
N#Cc1cc(F)cc(Oc2ccc3c4c2C(F)CC4(O)C(F)(F)C3(F)F)c1 (stereo not shown) [Compound 4, 3-fluoro-5-((1,3,3,4,4-pentafluoro-2a-hydroxy-2,2a,3,4-tetrahydro-1H-cyclopenta[cd]inden-7-yl)oxy)benzonitrile] | 0.01
N#Cc1cc(F)cc(Oc2ccc3c4c2[C@@H](F)[C@@H](F)[C@]4(O)C(F)(F)C3(F)F)c1 [Compound 24a, 3-fluoro-5-(((1R,2S,2aS)-1,2,3,3,4,4-hexafluoro-2a-hydroxy-2,2a,3,4-tetrahydro-1H-cyclopenta[cd]inden-7-yl)oxy)benzonitrile] | 0.002
N#Cc1cc(F)cc(Oc2ccc3c4c2C(F)CC4(N)C(F)(F)C3(F)F)c1 (stereo not shown) [Compound 14, 3-((2a-amino-1,3,3,4,4-pentafluoro-2,2a,3,4-tetrahydro-1H-cyclopenta[cd]inden-7-yl)oxy)-5-fluorobenzonitrile] | 0.63
N#Cc1cc(F)cc(Oc2ccc3c4c2[C@@H](F)[C@H](F)[C@]4(O)C(F)(F)C3(F)F)c1 [Compound 24b, 3-fluoro-5-(((1R,2R,2aS)-1,2,3,3,4,4-hexafluoro-2a-hydroxy-2,2a,3,4-tetrahydro-1H-cyclopenta[cd]inden-7-yl)oxy)benzonitrile] | 0.011
N#Cc1cc(F)cc(Oc2ccc3c4c2CC(F)(F)C4(O)CC3F)c1 (stereo not shown) [Compound 19, 3-fluoro-5-((1,3,3-trifluoro-2a-hydroxy-2,2a,3,4-tetrahydro-1H-cyclopenta[cd]inden-5-yl)oxy)benzonitrile] | 4.1
CC1(O)CC2(O)c3c(ccc(Oc4cc(F)cc(C#N)c4)c31)C(F)(F)C2(F)F (stereo not shown) [Compound 11, 3-fluoro-5-((3,3,4,4-tetrafluoro-1,2a-dihydroxy-1-methyl-2,2a,3,4-tetrahydro-1H-cyclopenta[cd]inden-7-yl)oxy)benzonitrile] | > 5
N#Cc1cc(F)cc(Oc2ccc3c4c2C2(CC2)CC4(O)C(F)(F)C3(F)F)c1 (stereo not shown) [Compound 9, 3-fluoro-5-((3,3,4,4-tetrafluoro-2a-hydroxy-2,2a,3,4-tetrahydrospiro[cyclopenta[cd]indene-1,1′-cyclopropan]-7-yl)oxy)benzonitrile] | 0.17
C=C1C[C@@]2(O)c3c(ccc(Oc4cc(F)cc(C#N)c4)c31)C(F)(F)C2(F)F [Compound 23a, (R)-3-fluoro-5-((3,3,4,4-tetrafluoro-2a-hydroxy-1-methylene-2,2a,3,4-tetrahydro-1H-cyclopenta[cd]inden-7-yl)oxy)benzonitrile] | 0.007
CC1CC2(O)c3c(ccc(Oc4cc(F)cc(C#N)c4)c31)C(F)(F)C2(F)F (stereo not shown) [Compound 10, 3-fluoro-5-((3,3,4,4-tetrafluoro-2a-hydroxy-1-methyl-2,2a,3,4-tetrahydro-1H-cyclopenta[cd]inden-7-yl)oxy)benzonitrile] | 0.41
N#Cc1cc(F)cc(Oc2ccc3c4c2C(F)(F)CC4(F)C(F)(F)C3(F)F)c1 (stereo not shown) [Compound 15, 3-fluoro-5-((1,1,2a,3,3,4,4-heptafluoro-2,2a,3,4-tetrahydro-1H-cyclopenta[cd]inden-7-yl)oxy)benzonitrile] | > 5
N#Cc1cc(F)cc(Oc2ccc3c4c2CCC4(O)C(F)(F)C3(F)F)c1 (stereo not shown) [Compound 13, 3-fluoro-5-((3,3,4,4-tetrafluoro-2a-hydroxy-2,2a,3,4-tetrahydro-1H-cyclopenta[cd]inden-7-yl)oxy)benzonitrile] | 0.33
CC1(F)CC2(O)c3c(ccc(Oc4cc(F)cc(C#N)c4)c31)C(F)(F)C2(F)F (stereo not shown) [Compound 12, 3-fluoro-5-((1,3,3,4,4-pentafluoro-2a-hydroxy-1-methyl-2,2a,3,4-tetrahydro-1H-cyclopenta[cd]inden-7-yl)oxy)benzonitrile] | 0.1
N#Cc1cc(F)cc(Oc2ccc3c4c2[C@H](F)C[C@]4(O)C(F)(F)C3(F)F)c1 [Compound 7, 3-fluoro-5-(((1R,2aR)-1,3,3,4,4-pentafluoro-2a-hydroxy-2,2a,3,4-tetrahydro-1H-cyclopenta[cd]inden-7-yl)oxy)benzonitrile] | 2.1
N#Cc1cc(F)cc(Oc2ccc3c4c2[C@@H](F)C[C@]4(O)C(F)(F)C3(F)F)c1 [Compound 5, 3-fluoro-5-(((1S,2aR)-1,3,3,4,4-pentafluoro-2a-hydroxy-2,2a,3,4-tetrahydro-1H-cyclopenta[cd]inden-7-yl)oxy)benzonitrile] | 0.006
OC12CC(F)c3c(Oc4cncc(F)c4)ccc(c31)C(F)(F)C2(F)F (stereo not shown) [Compound 8, 1,3,3,4,4-pentafluoro-7-((5-fluoropyridin-3-yl)oxy)-1,2,3,4-tetrahydro-2aH-cyclopenta[cd]inden-2a-ol] | 0.32
